This passage reports GI50 and ΔTm results from ChEMBL document CHEMBL4028852, “Design of a Chemical Probe for the Bromodomain and Plant Homeodomain Finger-Containing (BRPF) Family of Proteins” (J Med Chem, 2017).

In general, GI50 refers to the concentration at which growth is held to half of that of the control. Low readings indicate more potent growth inhibition, high ones less potent growth inhibition. A word on the ΔTm: it is the shift of the melting midpoint relative to a reference.

The subject of test [1] is NCI-H1703. Nature of the test: Inhibition of cell proliferation of human NCI-H1703 cells after 72 hrs by MTS assay. It counts as functional. The following applies: NCI-H1703, 72 h. (Formazan colour is commonly taken as a measure of viable cells.)
Test [2] has as its system DMS-114. Nature of the test: Inhibition of cell proliferation of human DMS114 cells after 72 hrs by MTS assay. The following applies: DMS-114, 72 h. It counts as functional.
Test [3] is described as follows: Inhibition of cell proliferation of human HRA19 cells after 72 hrs by MTS assay. It counts as functional. Particulars: HRA19, 72 h.
Test [4] can be described thus: Inhibition of cell proliferation of human RERF-LC-Sq1 cells after 72 hrs by MTS assay. The following applies: RERF-LC-Sq1, 72 h. Format: functional.
Test [5] addresses T1, Peregrin (Homo sapiens) (UniProt P55201).
T1 sequence (whole entry): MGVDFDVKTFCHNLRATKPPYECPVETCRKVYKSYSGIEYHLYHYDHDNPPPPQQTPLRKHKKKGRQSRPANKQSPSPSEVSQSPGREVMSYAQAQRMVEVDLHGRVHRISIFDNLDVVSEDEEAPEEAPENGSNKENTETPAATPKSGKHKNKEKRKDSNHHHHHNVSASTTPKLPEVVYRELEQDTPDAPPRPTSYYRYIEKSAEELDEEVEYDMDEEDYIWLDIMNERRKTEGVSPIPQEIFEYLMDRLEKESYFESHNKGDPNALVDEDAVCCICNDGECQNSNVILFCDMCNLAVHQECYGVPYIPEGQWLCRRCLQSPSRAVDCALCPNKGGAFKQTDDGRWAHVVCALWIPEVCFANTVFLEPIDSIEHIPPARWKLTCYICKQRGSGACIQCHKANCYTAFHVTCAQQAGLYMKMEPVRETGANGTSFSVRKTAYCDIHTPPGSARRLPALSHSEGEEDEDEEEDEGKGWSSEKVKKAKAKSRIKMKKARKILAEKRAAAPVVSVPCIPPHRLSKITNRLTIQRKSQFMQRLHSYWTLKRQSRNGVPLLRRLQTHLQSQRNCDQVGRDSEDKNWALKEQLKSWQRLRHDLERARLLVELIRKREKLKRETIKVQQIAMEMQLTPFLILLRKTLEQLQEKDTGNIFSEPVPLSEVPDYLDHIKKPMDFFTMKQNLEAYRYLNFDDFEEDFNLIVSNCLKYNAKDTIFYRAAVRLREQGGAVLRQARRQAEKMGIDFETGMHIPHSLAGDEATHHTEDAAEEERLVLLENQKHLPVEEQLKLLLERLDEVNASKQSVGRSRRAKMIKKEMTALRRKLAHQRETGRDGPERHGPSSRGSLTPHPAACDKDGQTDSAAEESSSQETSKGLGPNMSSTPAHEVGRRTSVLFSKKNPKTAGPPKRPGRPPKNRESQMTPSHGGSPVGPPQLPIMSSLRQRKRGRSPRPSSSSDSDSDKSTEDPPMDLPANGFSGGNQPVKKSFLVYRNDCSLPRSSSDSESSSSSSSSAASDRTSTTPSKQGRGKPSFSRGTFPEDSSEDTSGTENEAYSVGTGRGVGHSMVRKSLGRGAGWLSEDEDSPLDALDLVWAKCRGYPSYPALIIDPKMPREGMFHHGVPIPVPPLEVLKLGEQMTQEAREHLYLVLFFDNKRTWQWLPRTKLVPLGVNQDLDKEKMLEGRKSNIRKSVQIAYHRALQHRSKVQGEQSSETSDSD
Description: Binding affinity to BRPF1 (unknown origin) assessed as change in melting temperature at 10 uM by differential scanning fluorimetry based thermal shift assay

Consider `Cc1cc2cc(NS(=O)(=O)c3ccc(C#N)cc3)ccc2n(C)c1=O`, for which the GI50 was above 30 µM in test [1], 16.6 µM in test [2], 15.6 µM in test [3] and 17.1 µM in test [4]. For the same molecule, the ΔTm in test [5] amounted to 9.7 °C.
